What was measured:
[1] = test system: ABUTH = velvetleaf (Abutilon theophrasti); experiment: General postemergence herbicidal activity, velvetleaf; format: in vivo; settings: Abutilon theophrasti, post-emergence, 336 h; post-emergent, 140 g ai/ha, visual score after 14 days (0 no injury, 100 complete kill)
Method: Seeds or nutlets of the desired test plant species were planted in Sun Gro MetroMix® 306 planting mixture, which typically has a pH of 6.0 to 6.8 and an organic matter content of about 30 percent, in plastic pots with a surface area of 64 square centimeters. When required to ensure good germination and healthy plants, a fungicide treatment and/or other chemical or physical treatment was applied. The plants were grown for 7-21 days in a greenhouse with an approximate 15 hour photoperiod which was maintained at about 23-29° C. during the day and 22-28° C. during the night. Nutrients and water were added on a regular basis and supplemental lighting was provided with overhead metal halide 1000-Watt lamps as necessary. The plants were employed for testing when they reached the first or second true leaf stage.
A weighed amount, determined by the highest rate to be tested, of each test compound was placed in a 25 mL glass vial and was dissolved in 4 mL of a 97:3 v/v (volume/volume) mixture of acetone and dimethyl sulfoxide (DMSO) to obtain concentrated stock solutions. […] The concentrated stock solutions obtained were diluted with 20 mL of an aqueous mixture containing acetone, water, isopropyl alcohol, DMSO, Atplus 411F crop oil concentrate, and Triton X-155 surfactant in a 48.5:39:10:1.5:1.0:0.02 v/v ratio to obtain spray solutions containing the highest application rates. Additional application rates were obtained by serial dilution of 12 mL of the high rate solution into a solution containing 2 mL of 97:3 v/v (volume/volume) mixture of acetone and dimethyl sulfoxide (DMSO) and 10 mL of an aqueous mixture containing acetone, water, isopropyl alcohol, DMSO, Atplus 411F crop oil concentrate, and Triton X-155 surfactant in a 48.5:39:10:1.5:1.0:0.02 v/v ratio to obtain ½×, ¼×, ⅛× and 1/16× rates of the high rate. Compound requirements are based upon a 12 mL application volume at a rate of 187 L/ha. Formulated compounds were applied to the plant material with an overhead Mandel track sprayer equipped with a 8002E nozzles calibrated to deliver 187 L/ha over an application area of 0.503 square meters at a spray height of 18 inches (43 cm) above the average plant canopy height. Control plants were sprayed in the same manner with the solvent blank.
(§1) The treated plants and control plants were placed in a greenhouse as described above and watered by sub-irrigation to prevent wash-off of the test compounds. After 14 days, the condition of the test plants as compared with that of the untreated plants was determined visually and scored on a scale of 0 to 100 percent where 0 corresponds to no injury and 100 corresponds to complete kill.
By applying the well-accepted probit analysis as described by J. Berkson in Journal of the […], 48, 565 (1953) and by D. Finney in “Probit Analysis” Cambridge University Press (1952), the above data can be used to calculate GR50 and GR80 values, which are defined as growth reduction factors that correspond to the effective dose of herbicide required to kill or control 50 percent or 80 percent, respectively, of a target plant.

PAPRH = Papaver rhoeas = experiment: Postemergence herbicidal activity in cereal crops, Papaver rhoeas; format: in vivo; settings: post-emergence, 480 h, post-emergent, after 20-22 days; for pest or weed control at 35 g/ha: 35 g ai/ha; for pest or weed control at 17.5 g/ha: 17.5 g ai/ha; for pest or weed control at 70 g/ha: 70 g ai/ha
Method: Seeds of the desired test plant species were planted in Sun Gro MetroMix® 306 planting mixture, which typically has a pH of 6.0 to 6.8 and an organic matter content of about 30 percent, in plastic pots with a surface area of 103.2 square centimeters. When required to ensure good germination and healthy plants, a fungicide treatment and/or other chemical or physical treatment was applied. The plants were grown for 7-36 days in a greenhouse with an approximate 14 hour photoperiod which was maintained at about 18° C. during the day and 17° C. during the night. Nutrients and water were added on a regular basis and supplemental lighting was provided with overhead metal halide 1000-Watt lamps as necessary. The plants were employed for testing when they reached the second or third true leaf stage.
A weighed amount, determined by the highest rate to be tested, of each test compound was placed in a 25 mL glass vial and was dissolved in 8 mL of a 97:3 v/v mixture of acetone and DMSO to obtain concentrated stock solutions. […] The concentrated stock solutions obtained were diluted with 16 mL of an aqueous mixture containing acetone, water, isopropyl alcohol, DMSO, Agri-dex crop oil concentrate, and Triton X-77 surfactant in a 64.7:26.0:6.7:2.0:0.7:0.01 v/v ratio to obtain spray solutions containing the highest application rates. Additional application rates were obtained by serial dilution of 12 mL of the high rate solution into a solution containing 4 mL of 97:3 v/v mixture of acetone and DMSO and 8 mL of an aqueous mixture containing acetone, water, isopropyl alcohol, DMSO, Agri-dex crop oil concentrate, and Triton X-77 surfactant in a 48.5:39.0:10.0:1.5:1.0:0.02 v/v ratio to obtain ½×, ¼×, ⅛× and 1/16× rates of the high rate. Compound requirements are based upon a 12 mL application volume at a rate of 187 L/ha. Formulated compounds were applied to the plant material with an overhead Mandel track sprayer equipped with a 8002E nozzles calibrated to deliver 187 L/ha over an application area of 0.503 square meters at a spray height of 18 inches (43 cm) above average plant canopy height. Control plants were sprayed in the same manner with the blank.
as §1, with “20-22” for “14”

CCOc1c(Cl)ccc(-c2nc(N)c(Cl)c(C(=O)OC)n2)c1F [Compound 1, 6-amino-5-chloro-2-(4-chloro-3-ethoxy-2-fluorophenyl)-pyrimidine-4-carboxylic acid methyl ester]
pest or weed control at 140 g/ha [1]: 100%
pest or weed control at 35 g/ha (PAPRH = Papaver rhoeas): 100%

COC(=O)c1nc(-c2c(F)cc(Cl)c(OC)c2F)nc(N)c1Cl [Compound 2, 6-amino-5-chloro-2-(4-chloro-2,6-difluoro-3-methoxy-phenyl)pyrimidine-4-carboxylic acid methyl ester]
pest or weed control at 140 g/ha [1]: 90%
pest or weed control at 35 g/ha (PAPRH = Papaver rhoeas): 100%

COC(=O)c1nc(-c2ccc(Cl)c(OC)c2F)nc(N)c1Cl [Compound 3, 6-amino-5-chloro-2-(4-chloro-2-fluoro-3-methoxyphenyl)-pyrimidine-4-carboxylic acid methyl ester]
pest or weed control at 140 g/ha [1]: 100%
pest or weed control at 17.5 g/ha (PAPRH = Papaver rhoeas): 100%

COC(=O)c1nc(-c2ccc(Cl)c(OC)c2Cl)nc(N)c1Cl [Compound 6, 6-Amino-5-chloro-2-(2,4-dichloro-3-methoxyphenyl)pyrimidine-4-carboxylic acid methyl ester]
pest or weed control at 140 g/ha [1]: 95%
pest or weed control at 70 g/ha (PAPRH = Papaver rhoeas): 99%

COC(=O)c1nc(-c2ccc(Cl)c(C(F)F)c2F)nc(N)c1Cl [Compound 7, 6-Amino-5-chloro-2-(4-chloro-3-difluoromethyl-2-fluorophenyl)pyrimidine-4-carboxylic acid methyl ester]
pest or weed control at 140 g/ha [1]: 80%
pest or weed control at 17.5 g/ha (PAPRH = Papaver rhoeas): 95%

COC(=O)c1nc(-c2ccc(Cl)c(N(C)C)c2F)nc(N)c1Cl [Compound 8, 6-Amino-5-chloro-2-(4-chloro-3-dimethylamino-2-fluorophenyl)pyrimidine-4-carboxylic acid methyl ester]
pest or weed control at 140 g/ha [1]: 100%
pest or weed control at 35 g/ha (PAPRH = Papaver rhoeas): 100%

COC(=O)c1nc(-c2ccc3c(c2F)OCO3)nc(N)c1Cl [Compound 9, 6-Amino-5-chloro-2-(4-fluorobenzo[1,3]dioxol-5-yl)pyrimidine-4-carboxylic acid methyl ester]
pest or weed control at 140 g/ha [1]: 95%
pest or weed control at 70 g/ha (PAPRH = Papaver rhoeas): 40%

COC(=O)c1nc(-c2ccc(Cl)c(OCC(F)F)c2F)nc(N)c1Cl [Compound 10, 6-Amino-5-chloro-2-[4-chloro-3-(2,2-difluoroethoxy)-2-fluorophenyl]-pyrimidine-4-carboxylic acid methyl ester]
pest or weed control at 140 g/ha [1]: 75%
pest or weed control at 70 g/ha (PAPRH = Papaver rhoeas): 95%

COC(=O)c1nc(-c2ccc(Cl)c(OC)c2F)nc(N)c1Br [Compound 13, 6-amino-5-bromo-2-(4-chloro-2-fluoro-3-methoxyphenyl)-pyrimidine-4-carboxylic acid methyl ester]
pest or weed control at 140 g/ha [1]: 100%
pest or weed control at 17.5 g/ha (PAPRH = Papaver rhoeas): 100%
